From ChEMBL document CHEMBL2069206 (J Med Chem, 2012) come the findings set out here.

For assay [1], the target named is T1, Adenosine receptor A1 (Homo sapiens, UniProt P30542).
T1 sequence (P30542 whole entry): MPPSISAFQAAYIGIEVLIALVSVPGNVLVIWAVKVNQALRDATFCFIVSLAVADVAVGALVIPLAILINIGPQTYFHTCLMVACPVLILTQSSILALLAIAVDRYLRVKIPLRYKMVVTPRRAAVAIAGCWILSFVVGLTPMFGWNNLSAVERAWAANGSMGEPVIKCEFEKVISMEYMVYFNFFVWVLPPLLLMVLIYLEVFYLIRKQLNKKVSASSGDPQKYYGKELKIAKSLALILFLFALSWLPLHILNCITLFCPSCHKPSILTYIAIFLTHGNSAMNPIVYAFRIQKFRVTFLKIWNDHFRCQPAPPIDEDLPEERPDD
Description: Displacement of 3[H]R-PIA from human A1 adenosine receptor expressed in CHO cells after 60 mins by Liquid scintillation analysis. It counts as cell-based.

In assay [2] the target is T2, Adenosine receptor A1 (Homo sapiens) (UniProt P30542).
T2 sequence (whole entry): T1 sequence (P30542 whole entry)
Description: Partial agonist activity at human A1 adenosine receptor expressed in CHO cells assessed as inhibition of forskolin-induced cAMP accumulation after 30 mins relative to NECA. The assay is classed as functional, cell-based.

Assay [3] addresses T3, Adenosine receptor A3 (Homo sapiens, UniProt P0DMS8).
T3 sequence (P0DMS8 whole entry): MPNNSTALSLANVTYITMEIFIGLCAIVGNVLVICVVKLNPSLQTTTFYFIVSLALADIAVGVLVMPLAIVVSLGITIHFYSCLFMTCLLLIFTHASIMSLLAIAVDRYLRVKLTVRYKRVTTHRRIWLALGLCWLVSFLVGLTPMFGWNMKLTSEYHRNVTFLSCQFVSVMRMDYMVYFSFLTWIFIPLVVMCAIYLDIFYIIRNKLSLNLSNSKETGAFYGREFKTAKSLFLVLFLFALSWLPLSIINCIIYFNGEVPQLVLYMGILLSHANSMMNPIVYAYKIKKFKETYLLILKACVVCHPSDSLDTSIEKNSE
Nature of the assay: Displacement of [125I]I-AB-MECA from human A3 adenosine receptor expressed in CHO cells after 60 mins gamma counter. The assay is classed as cell-based.

Assay [4] has as its target Adenosine receptor A2a (Rattus norvegicus) (UniProt P30543). The note with it: HEK293, 10 uM.
The target in assay [5] is T4, Adenosine receptor A1 (Rattus norvegicus) (UniProt P25099).
T4 sequence (whole entry): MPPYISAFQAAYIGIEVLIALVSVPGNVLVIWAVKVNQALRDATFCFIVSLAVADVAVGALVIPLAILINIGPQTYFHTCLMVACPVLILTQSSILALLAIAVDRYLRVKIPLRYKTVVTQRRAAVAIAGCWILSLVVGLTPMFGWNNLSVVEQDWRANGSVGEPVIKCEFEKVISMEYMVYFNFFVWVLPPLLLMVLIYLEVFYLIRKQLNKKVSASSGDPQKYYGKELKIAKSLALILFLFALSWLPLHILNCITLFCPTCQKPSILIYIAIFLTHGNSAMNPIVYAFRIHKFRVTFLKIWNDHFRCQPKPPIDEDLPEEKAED
The note with it: CHO, 10 uM.

The target of assay [6] is T5, Adenosine receptor A2a (Homo sapiens, UniProt P29274). Nature of the assay: Agonist activity at human A2A adenosine receptor expressed in CHO cells assessed as stimulation of forskolin-induced cAMP accumulation after 30 mins. The assay is classed as functional, cell-based.
T5 sequence (P29274 whole entry): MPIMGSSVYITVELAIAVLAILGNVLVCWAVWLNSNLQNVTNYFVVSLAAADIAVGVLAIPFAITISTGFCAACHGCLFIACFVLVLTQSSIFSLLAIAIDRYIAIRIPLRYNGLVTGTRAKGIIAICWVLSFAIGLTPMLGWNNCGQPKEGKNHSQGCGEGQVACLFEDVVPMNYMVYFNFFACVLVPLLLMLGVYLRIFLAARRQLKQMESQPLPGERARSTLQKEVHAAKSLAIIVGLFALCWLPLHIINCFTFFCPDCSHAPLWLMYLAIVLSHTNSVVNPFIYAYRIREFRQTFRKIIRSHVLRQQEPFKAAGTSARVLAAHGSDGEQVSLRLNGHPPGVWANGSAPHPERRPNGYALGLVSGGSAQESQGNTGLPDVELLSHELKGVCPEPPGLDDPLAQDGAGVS
Assay [7] addresses T5, Adenosine receptor A2a. Nature of the assay: Agonist activity at human A2A adenosine receptor expressed in CHO cells assessed as stimulation of forskolin-induced cAMP accumulation after 30 mins relative to NECA. It counts as functional, cell-based.
In assay [8] the target is T5, Adenosine receptor A2a. Nature of the assay: Displacement of 3[H]CGS21680 from human A2A adenosine receptor expressed in HEK293 cells after 60 mins by Liquid scintillation analysis. The assay is classed as cell-based.
For assay [9], the target named is T2, Adenosine receptor A1 (Homo sapiens). Description: Agonist activity at human A1 adenosine receptor expressed in CHO cells assessed as inhibition of forskolin-induced cAMP accumulation after 30 mins relative to NECA. It counts as functional, cell-based.
For assay [10], the target named is T1, Adenosine receptor A1. Description: Partial agonist activity at human A1 adenosine receptor expressed in CHO cells assessed as inhibition of forskolin-induced cAMP accumulation after 30 mins. The assay is classed as functional, cell-based.

Chain of Adenosine receptor A2a (Rattus norvegicus) (P30543 whole entry): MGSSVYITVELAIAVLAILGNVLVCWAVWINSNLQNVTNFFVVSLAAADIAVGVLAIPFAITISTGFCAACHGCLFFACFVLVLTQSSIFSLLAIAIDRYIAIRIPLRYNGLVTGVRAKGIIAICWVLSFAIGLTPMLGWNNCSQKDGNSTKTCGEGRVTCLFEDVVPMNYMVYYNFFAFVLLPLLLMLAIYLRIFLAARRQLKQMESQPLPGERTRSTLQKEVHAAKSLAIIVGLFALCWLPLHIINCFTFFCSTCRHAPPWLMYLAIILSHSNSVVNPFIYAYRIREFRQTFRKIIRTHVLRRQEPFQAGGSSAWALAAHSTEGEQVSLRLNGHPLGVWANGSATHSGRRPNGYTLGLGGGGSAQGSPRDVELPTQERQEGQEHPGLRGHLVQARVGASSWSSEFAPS

Turning to `Nc1ncnc2c1ncn2[C@@H]1O[C@H](C(=O)NCC(F)(F)F)[C@@H](O)[C@H]1O`, the Ki in assay [1] stood at […]; in assay [3], 0.7 µM. The Efficacy in [2] is 73.4%.

Consider `NCCCNC(=O)[C@H]1O[C@@H](n2cnc3c(N)ncnc32)[C@H](O)[C@@H]1O`, for which the Ki in [1] is greater than 10 µM.

As for `NCCNC(=O)[C@H]1O[C@@H](n2cnc3c(N)ncnc32)[C@H](O)[C@@H]1O`, the inhibition in [4] and in assay [5] was greater than 10% each time.

Take `Nc1ncnc2c1ncn2[C@@H]1O[C@H](C(=O)NC2CCCC2)[C@@H](O)[C@H]1O`: the values for the inhibition constant (Ki) in assay [1], in [8] and in assay [3] were 0.027 µM, 0.65 µM and 0.07 µM, respectively. Further, in assay [6], the concentration for a half-maximal effect (EC50) came to 0.225 µM. Further, the Efficacy turned out to be 75% in [7] and 92.5% in assay [9].

`CCNC(=O)[C@H]1O[C@@H](n2cnc3c(N)ncnc32)[C@H](O)[C@@H]1O`: in assay [9], the Efficacy came out at 100%.

Consider `Nc1ncnc2c1ncn2[C@@H]1O[C@H](C(=O)NC2CC2)[C@@H](O)[C@H]1O`, for which the inhibitory constant (Ki) in [1] came to 0.0019 µM; in assay [8], 0.05 µM; in assay [3], 0.18 µM. Also, in assay [6], the EC50 turned out to be 0.0229 µM. Further, the Efficacy in assay [9] came out at 95.4%.

Turning to `Nc1ncnc2c1ncn2[C@@H]1O[C@H](C(=O)NC2CCC2)[C@@H](O)[C@H]1O`, the EC50 stood at 0.0268 µM in [6] and 0.0151 µM in assay [10]. For the same compound, the Efficacy in assay [7] was determined as 99%; in assay [2] it was 65.2%. Also, the Ki was found to be 0.034 µM in assay [8] and 0.07 µM in assay [3].
